# Assay results reported in ChEMBL document CHEMBL5500371, “Arginine and tryptophan-rich dendritic antimicrobial peptides that disrupt membranes for bacterial infection in vivo” (Eur J Med Chem, 2024).
# Activity calls are given as the source filed them. The calls are words filed in the database; no cut-off is given here. Where a SMILES comes first, the peptide text is derived from it. Side-chain parts run from the residue outwards.
# Experiments:
# Staphylococcus aureus = assay: Antibacterial activity against Staphylococcus aureus ATCC 25923 assessed as inhibition of bacterial growth incubated for 20 hrs by broth microdilution method; format: functional
# Bacillus subtilis = assay: Antibacterial activity against Bacillus subtilis ATCC 23857 assessed as inhibition of bacterial growth incubated for 20 hrs by broth microdilution method; format: functional
# Acinetobacter baumannii = assay: Antibacterial activity against Acinetobacter baumannii ATCC 19606 assessed as inhibition of bacterial growth incubated for 20 hrs by broth microdilution method; format: functional
# Klebsiella pneumoniae = assay: Antibacterial activity against Klebsiella pneumoniae ATCC 700603 assessed as inhibition of bacterial growth incubated for 20 hrs by broth microdilution method; format: functional
# Escherichia coli [1] = assay: Antibacterial activity against Escherichia coli ATCC 25922 assessed as inhibition of bacterial growth incubated for 20 hrs by broth microdilution method; format: functional
# Pseudomonas aeruginosa = assay: Antibacterial activity against Pseudomonas aeruginosa ATCC 27853 assessed as inhibition of bacterial growth incubated for 20 hrs by broth microdilution method; format: functional
# Erythrocyte = assay: Hemolytic activity in mouse erythrocytes assessed as 10% hemolysis incubated for 1 hr by absorbance based analysis; format: toxicity, cell-based
# [2] = Cytotoxicity against HEK293T cells assessed as cell death measured after 1 hr by resazurin dye based analysis; format: toxicity, HEK-293T; conditions: human, HEK293T cells
# Escherichia coli [3] = assay: Resistant development in Escherichia coli assessed as increase in MIC at sub-MIC measured after 20 passages; format: functional, organism-based
Compound,MIC (Staphylococcus aureus),MIC (Bacillus subtilis),MIC (Acinetobacter baumannii),MIC (Klebsiella pneumoniae),MIC (Escherichia coli [1]),MIC (Pseudomonas aeruginosa),MHC10 (Erythrocyte),CC50 at 1 h [2],Activity (Escherichia coli [3])
N=C(N)NCCC[C@H](NC(=O)[C@H](CCCNC(=N)N)NC(=O)[C@H](CCCNC(=N)N)NC(=O)[C@H](CCCCNC(=O)[C@H](Cc1c[nH]c2ccccc12)NC(=O)[C@@H](N)Cc1c[nH]c2ccccc12)NC(=O)[C@H](Cc1c[nH]c2ccccc12)NC(=O)[C@@H](N)Cc1c[nH]c2ccccc12)C(N)=O (H-WWK([Trp-Trp])RRR-NH2),16 µM,16 µM,128 µM,> 128 µM,> 128 µM,> 128 µM,> 256 µM,> 128 µM,
N=C(N)NCCC[C@H](NC(=O)[C@H](CCCNC(=N)N)NC(=O)[C@H](CCCNC(=N)N)NC(=O)[C@H](CCCNC(=N)N)NC(=O)[C@H](CCCNC(=N)N)NC(=O)[C@H](CCCCNC(=O)[C@H](Cc1c[nH]c2ccccc12)NC(=O)[C@@H](N)Cc1c[nH]c2ccccc12)NC(=O)[C@H](Cc1c[nH]c2ccccc12)NC(=O)[C@@H](N)Cc1c[nH]c2ccccc12)C(N)=O (H-WWK([Trp-Trp])RRRRR-NH2),8 µM,8 µM,32 µM,64 µM,8 µM,32 µM,> 256 µM,> 128 µM,
N=C(N)NCCC[C@H](NC(=O)[C@H](CCCCN)NC(=O)[C@H](Cc1c[nH]c2ccccc12)NC(=O)[C@@H](N)Cc1c[nH]c2ccccc12)C(N)=O (H-WWKR-NH2),> 128 µM,> 128 µM,> 128 µM,> 128 µM,> 128 µM,> 128 µM,> 256 µM,> 128 µM,
N=C(N)NCCC[C@H](NC(=O)[C@H](CCCNC(=N)N)NC(=O)[C@H](CCCNC(=N)N)NC(=O)[C@H](CCCNC(=N)N)NC(=O)[C@H](CCCNC(=N)N)NC(=O)[C@H](CCCCNC(=O)[C@H](Cc1c[nH]c2ccccc12)NC(=O)[C@H](Cc1c[nH]c2ccccc12)NC(=O)[C@@H](N)Cc1c[nH]c2ccccc12)NC(=O)[C@H](Cc1c[nH]c2ccccc12)NC(=O)[C@H](Cc1c[nH]c2ccccc12)NC(=O)[C@@H](N)Cc1c[nH]c2ccccc12)C(N)=O (H-WWWK([Trp-Trp-Trp])RRRRR-NH2),8 µM,8 µM,32 µM,32 µM,16 µM,32 µM,22.73 µM,48.2 µM,
N=C(N)NCCC[C@H](NC(=O)[C@H](CCCNC(=N)N)NC(=O)[C@H](CCCNC(=N)N)NC(=O)[C@H](CCCNC(=N)N)NC(=O)[C@H](CCCNC(=N)N)NC(=O)[C@H](CCCNC(=N)N)NC(=O)[C@H](CCCCNC(=O)[C@H](Cc1c[nH]c2ccccc12)NC(=O)[C@H](Cc1c[nH]c2ccccc12)NC(=O)[C@@H](N)Cc1c[nH]c2ccccc12)NC(=O)[C@H](Cc1c[nH]c2ccccc12)NC(=O)[C@H](Cc1c[nH]c2ccccc12)NC(=O)[C@@H](N)Cc1c[nH]c2ccccc12)C(N)=O (H-WWWK([Trp-Trp-Trp])RRRRRR-NH2),16 µM,8 µM,32 µM,32 µM,32 µM,16 µM,17.61 µM,41.7 µM,
CO[C@H]1/C=C/O[C@@]2(C)Oc3c(C)c(O)c4c(O)c(c(/C=N/N5CCN(C)CC5)c(O)c4c3C2=O)NC(=O)/C(C)=C\C=C\[C@H](C)[C@H](O)[C@@H](C)[C@@H](O)[C@@H](C)[C@H](OC(C)=O)[C@@H]1C [RIFAMPIN],< 1 µM,< 1 µM,< 1 µM,32 µM,4 µM,32 µM,,,Active
H-RRKWW-NH2,> 128 µM,64 µM,> 128 µM,> 128 µM,> 128 µM,> 128 µM,> 256 µM,> 128 µM,
H-RRKWWW-NH2,64 µM,16 µM,128 µM,> 128 µM,64 µM,128 µM,> 256 µM,> 128 µM,
H-RRRRKWWW-NH2,8 µM,8 µM,128 µM,64 µM,64 µM,16 µM,> 256 µM,> 128 µM,
H-RRRRKWWWWW-NH2,8 µM,4 µM,32 µM,16 µM,8 µM,32 µM,45.69 µM,63.6 µM,
H-RRRRRRKWWWWW-NH2,16 µM,8 µM,32 µM,32 µM,16 µM,32 µM,42.8 µM,55.1 µM,
H-RRRRRRKWWWWWW-NH2,32 µM,8 µM,16 µM,32 µM,16 µM,64 µM,24.89 µM,51.5 µM,
H-RRRRRRKWWWWWWW-NH2,8 µM,8 µM,32 µM,32 µM,16 µM,32 µM,19.48 µM,101 µM,
H-WWKRR-NH2,> 128 µM,128 µM,> 128 µM,> 128 µM,> 128 µM,> 128 µM,> 256 µM,> 128 µM,
H-WWKRRR-NH2,> 128 µM,64 µM,> 128 µM,> 128 µM,> 128 µM,> 128 µM,> 256 µM,> 128 µM,
H-WWWWKRRR-NH2,8 µM,8 µM,32 µM,64 µM,32 µM,16 µM,> 256 µM,> 128 µM,
H-WWWWKRRRRR-NH2,8 µM,8 µM,32 µM,32 µM,16 µM,16 µM,> 256 µM,116 µM,
H-WWWWWWKRRRRR-NH2,8 µM,8 µM,16 µM,32 µM,16 µM,16 µM,29.45 µM,44.9 µM,
H-WWWWWWKRRRRRR-NH2,8 µM,8 µM,32 µM,16 µM,16 µM,32 µM,34.63 µM,45 µM,
H-WWWWWWKRRRRRRR-NH2,32 µM,16 µM,32 µM,32 µM,32 µM,32 µM,27.86 µM,46.6 µM,
